Experiment [1] concerns H. pylori. Nature of the experiment: MIC by broth microdilution assay against H. pylori. The class given is cell-based. The settings on record: Helicobacter pylori, 72 h. The procedure: (§1) The MIC and MBC of the compounds can be measured with the following procedure: In vitro antibacterial activity was tested using the broth microdilution assay. Experiments were carried out in triplicate using Müller-Hinton broth supplemented with 10% FBS in 96-well plates at a total assay volume of 100 μL. Antimicrobials were tested against H. pylori. Two-fold serial dilutions were prepared between the concentration range 0.01-64 μg/mL. An initial bacterial inoculum was adjusted to OD600=0.06 and incubated with test compounds at 37° C. for 3 days in humidified incubators under the 5% CO2 atmosphere. OD600 was measured and the lowest concentration of compound that inhibited bacterial growth was reported as the MIC. See Gwisai T, et al. Repurposing niclosamide as a versatile antimicrobial surface coating against device-associated, hospital-acquired bacterial infections. Biomed Mater. 2017; 12(4):045010. The pH was adjusted to acidic condition with 1 N HCL. The minimal bactericidal concentration (MBC) was determined by plating 5 μL of broth culture from the MIC assay onto Müller-Hinton agar (BD Biosciences) supplemented with 10% FBS. After 72 h, the lowest concentration at which colonies were not observed was reported as the MBC.
On the technique in general: Dilution methods test growth across graded concentrations, often in twofold steps.

Experiment [2] relates to H. pylori. In words: MBC by plating broth culture from the MIC assay onto Müller-Hinton agar. The class given is cell-based. The settings on record: Helicobacter pylori. The procedure:
as §1

Experiment [3] concerns H. pylori strain 49503. In words: MIC against H. pylori strain 49503. The class given is cell-based, Helicobacter pylori. The procedure:
as §1

For experiment [4], the system named is H. pylori strain 43504. Nature of the experiment: MIC against H. pylori strain 43504. Format: cell-based, Helicobacter pylori. The procedure: as §1
For experiment [5], the system named is H. pylori strain 51932. In words: MIC against H. pylori strain 51932. Format: cell-based, Helicobacter pylori. The procedure:
as §1

Experiment [6] relates to H. pylori. Nature of the experiment: MIC in acidic pH environments. The class given is cell-based. The settings on record: Helicobacter pylori. As to the method: as §1
MIC data in acidic pH is shown in Table 6 for selected compounds identified by compound number.

Experiment [7] relates to H. pylori. Nature of the experiment: Antibacterial synergy by checkerboard assay (FICI) with antibiotics and proton pump inhibitors. The settings on record: tested with amoxicillin, clarithromycin, omeprazole and pantoprazole; synergistic effect = FICI ≤0.5. The class given is cell-based, Helicobacter pylori. The procedure: Compounds 1, 13, 15, and 16 were tested with Amoxxicillin, Clarithromycin, Omeprazole, and Pantoprazole.
Antibacterial synergy was tested using the checkerboard assay. The compound of interest was combined with antibiotics and proton pump inhibitors (PPIs). In this series of experiments cultures of H. pylori were adjusted to OD600=0.06 and added to compound pairs that had been serially diluted in the same 96-well plates, vertically for one compound and horizontally for the other. Assays were carried out in triplicate as described in the antibacterial susceptibility assay sub-section. The combinatorial inhibitory concentration was indicated by the FICI. FICI=MICA combination/MICA alone+MICB combination/MICB alone.

Where [8] appears, read: H. pylori, Müller-Hinton broth with 10% FBS, 37° C., 3 days, read-out: MIC.
[9] abbreviates: H. pylori, lowest concentration without colonies after 72 h, read-out: MBC.

Values after ≈ are worked out from the molar mass of the structure shown. Read-outs that look alike come from different tables or passages of the source.

What is called MIC is the lowest concentration found to suppress growth. One may read the MBC as the smallest concentration meeting the test's criterion for killing. In the case of `CCOP(=O)(N/N=C/c1ccc([N+](=O)[O-])o1)Nc1ccccc1` (stereo not shown) [Compound 1], the MIC in experiment [1] was 1 to 2 µg/mL (≈ 2.96 to 5.91 µM); in experiment [3], 1.0-2.0 μ/mL; in experiment [4], 2.0 µg/mL (≈ 5.91 µM); in experiment [5], 1.0 µg/mL (≈ 2.96 µM); in experiment [6] (pH 5.5) it was 0.25 µg/mL (≈ 0.739 µM); in experiment [6] (pH 6), 1 µg/mL (≈ 2.96 µM). The MIC in experiment [6] (pH 6.5) and in experiment [6] (pH 7) was 1 µg/mL (≈ 2.96 µM) in each case. The MBC in experiment [2] (72 h) was determined as 2 µg/mL (≈ 5.91 µM). The “Combination effect with secondary agent (FIG. 1)” value (from here on “Combination effect”) in experiment [7] is “synergistic effect”.

Molecule `CCOP(=O)(N/N=C/c1ccc([N+](=O)[O-])o1)Nc1ccc(OC)cc1` (stereo not shown) [Compound 3] gave an MIC in experiment [1] of 2 µg/mL (≈ 5.43 µM). This molecule also returned an MBC in experiment [2] (72 h) of 2 µg/mL (≈ 5.43 µM).

In the case of `Br.CNc1nc2c(s1)CCc1oc([N+](=O)[O-])cc1-2` [Compound 10], the MIC in experiment [1] (setting [8]) is 4 µg/mL. Besides, the MBC in experiment [2] (setting [9]) stood at 4 µg/mL.

`CCOP(=O)(N/N=C/c1ccc([N+](=O)[O-])o1)Nc1ccc2c(c1)OCO2` (stereo not shown) [Compound 6] displayed an MIC in experiment [1] of 2 µg/mL (≈ 5.23 µM). In experiment [2] (72 h), this molecule had an MBC of 2 µg/mL (≈ 5.23 µM).

For the molecule `Cc1ccc(NP(=O)(N/N=C/c2ccc([N+](=O)[O-])o2)N2CCOCC2)cc1` (stereo not shown) [Compound 8], in experiment [1] (setting [8]), the MIC worked out at 4 µg/mL (≈ 10.2 µM). For the same molecule, in experiment [2] (setting [9]), the MBC came out at 4 µg/mL (≈ 10.2 µM).

Take `CCOP(=O)(N/N=C/c1ccc([N+](=O)[O-])o1)Nc1ccc(Cl)cc1` (stereo not shown) [Compound 4]: the MIC in experiment [1] was 1 µg/mL (≈ 2.68 µM). This molecule also gave an MBC in experiment [2] (72 h) of 1 µg/mL (≈ 2.68 µM).

As to `CC1(C)S[C@@H]2[C@H](NC(=O)[C@H](N)c3ccc(O)cc3)C(=O)N2[C@H]1C(=O)O` [Amoxicillin, reference compound], the MIC in experiment [1] (setting [8]) came out at 0.01 µg/mL (≈ 0.0274 µM). Besides, in experiment [2] (setting [9]), the MBC was found to be 0.025 µg/mL (≈ 0.0684 µM).

As for `NC(=O)N/N=C1/CCCc2oc([N+](=O)[O-])cc21` [Compound 13], the MIC in experiment [1] (setting [8]) was 0.25 µg/mL (≈ 1.05 µM); in experiment [4], 0.5 µg/mL (≈ 2.1 µM); in experiment [6] (pH 5.5, read-out: MIC) it was 0.06 µg/mL (≈ 0.252 µM); in experiment [6] (pH 6.5, read-out: MIC), 0.25 µg/mL (≈ 1.05 µM); in experiment [6] (pH 6.0, read-out: MIC), 0.25 µg/mL (≈ 1.05 µM); in experiment [6] (pH 7.0, read-out: MIC) it was 0.25 µg/mL (≈ 1.05 µM). Also, the MBC in experiment [2] (setting [9]) was determined as 0.25 µg/mL (≈ 1.05 µM). Also, the “Combination effect” value in experiment [7] is listed as “synergistic effect”.

For `CCOP(=O)(N/N=C1\CCCc2oc([N+](=O)[O-])cc21)Nc1ccccc1` (stereo not shown) [Compound 15], the MIC in experiment [1] stood at 0.25 µg/mL (≈ 0.661 µM); in experiment [3], 0.25 µg/mL (≈ 0.661 µM); in experiment [4] it was 1.0 µg/mL (≈ 2.64 µM); in experiment [5], 0.25 µg/mL (≈ 0.661 µM); in experiment [6] (pH 5.5), 0.06 µg/mL (≈ 0.159 µM); in experiment [6] (pH 6) it was 0.25 µg/mL (≈ 0.661 µM). Also, the MIC in experiment [6] (pH 6.5) and in experiment [6] (pH 7) was 0.25 µg/mL (≈ 0.661 µM) each time. For the same molecule, the MBC in experiment [2] (72 h) was 0.25 µg/mL (≈ 0.661 µM). For the same molecule, the “Combination effect” value in experiment [7] was “synergistic effect”.

In experiment [1], `CCOP(=O)(N/N=C/c1ccc([N+](=O)[O-])o1)Nc1ccc(Cl)c(Cl)c1` (stereo not shown) [Compound 5] showed an MIC of 1 µg/mL (≈ 2.46 µM). The same molecule yielded an MBC in experiment [2] (72 h) of 1 µg/mL (≈ 2.46 µM).

With `O=C(/C=C/c1ccccc1)N/N=C1\CCCc2oc([N+](=O)[O-])cc21` [Compound 16], the MIC in experiment [1] (setting [8]) is 0.25 µg/mL (≈ 0.768 µM); in experiment [4], 1.0 µg/mL (≈ 3.07 µM); in experiment [6] (pH 5.5, read-out: MIC), 0.06 µg/mL (≈ 0.184 µM); in experiment [6] (pH 6.5, read-out: MIC), 0.25 µg/mL (≈ 0.768 µM); in experiment [6] (pH 6.0, read-out: MIC) it was 0.25 µg/mL (≈ 0.768 µM); in experiment [6] (pH 7.0, read-out: MIC), 0.25 µg/mL (≈ 0.768 µM). Moreover, in experiment [2] (setting [9]), the MBC amounted to 0.25 µg/mL (≈ 0.768 µM). The “Combination effect” value in experiment [7] is recorded as “synergistic effect”.

Take `Br.Nc1nc2c(s1)CCc1oc([N+](=O)[O-])cc1-2` [Compound 9]: in experiment [1] (setting [8]), the MIC stood at 4 µg/mL. Further, in experiment [2] (setting [9]), the MBC is 4 µg/mL.

With `O=C(/C=C/c1ccccc1)N/N=C/c1ccc([N+](=O)[O-])o1` [Compound 11], in experiment [1] (setting [8]), the MIC was found to be 1 µg/mL (≈ 3.51 µM). In addition, in experiment [2] (setting [9]), the MBC was determined as 1 µg/mL (≈ 3.51 µM).

In experiment [1], `O=[N+]([O-])c1ccc(/C=N/N=C/c2ccc([N+](=O)[O-])o2)o1` [Compound 14] registered an MIC of 4 µg/mL (≈ 14.4 µM). In experiment [2] (72 h), this molecule returned an MBC of 4 µg/mL (≈ 14.4 µM).

Regarding `O=C1CCCc2oc([N+](=O)[O-])cc21` [Compound 12], the MIC in experiment [1] (setting [8]) was found to be 1 µg/mL (≈ 5.52 µM). Besides, in experiment [2] (setting [9]), the MBC stood at 1 µg/mL (≈ 5.52 µM).

In experiment [1], `CCOP(=O)(NCc1ccccc1)N/N=C/c1ccc([N+](=O)[O-])o1` (stereo not shown) [Compound 7] returned an MIC of 2 µg/mL (≈ 5.68 µM). The molecule further gave an MBC in experiment [2] (72 h) of 2 µg/mL (≈ 5.68 µM).

`CCOP(=O)(N/N=C/c1ccc([N+](=O)[O-])o1)Nc1ccc(C)cc1` (stereo not shown) [Compound 2] gave an MIC in experiment [1] of 2 µg/mL (≈ 5.68 µM). For the same molecule, the minimum bactericidal concentration (MBC) in experiment [2] (72 h) was 2 µg/mL (≈ 5.68 µM).

Regarding `O=C(Nc1ccc([N+](=O)[O-])cc1Cl)c1cc(Cl)ccc1O` [Niclosamide, reference compound], the MIC in experiment [1] (setting [8]) was found to be 0.25 µg/mL (≈ 0.764 µM). Besides, in experiment [2] (setting [9]), the MBC was found to be 0.5 µg/mL (≈ 1.53 µM).

These data come from patent US12369579B2, “Antimicrobial agents and compositions and uses thereof” (KODA Therapeutics, LLC, priority 2019, dated 2025).
